Holding throughout (assay): drug sensitivity score (DSS) (DSS score); higher = more sensitive (stronger growth inhibition); extreme values may be limits of the assay
For test [1], the system named is Ba/F3 P210-BCR-ABL1 RUNX1-/- (mouse). The essentials:
(§1)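 Mouse Ba/F3 cells carrying P210-BCR-ABL1, CRISPR/Cas9-edited at runx1 exon 4 or edited-control clones, were screened against a 528-compound library on pre-printed 384-well plates. Each compound ran at five concentrations spanning a 10,000-fold range, with 10,000 cells per well in RPMI with 10% FBS for 72 h at 37 °C and 5% CO2. CellTiter-Glo luminescence was scaled between vehicle and positive-control wells. A drug sensitivity score summarised each dose-response, averaged over two replicates.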

Test [2] concerns Ba/F3 P210-BCR-ABL1 RUNX1-/mut (mouse). The essentials: as §1
Test [3] relates to Ba/F3 P210-BCR-ABL1 RUNX1wt/wt control (mouse). In a few lines:
as §1

± gives the standard deviation of the averaged measurements.

The record followed here is the supplement of paper PMC8024199.

`CN1CCN(C2CCN(C(=O)Nc3cc(Oc4ccc(NC(=O)C5(C(=O)Nc6ccc(F)cc6)CC5)c(F)c4)ccn3)CC2)CC1` [Golvatinib]: the figures for the drug sensitivity score in test [1], in test [2] and in test [3] were 3.95 ± 2, 1.8 ± 2 and 0, respectively.
Taken in the same sequence, the figures for `CC(C)C[C@H](NC(=O)[C@@H](COC(C)(C)C)NC(=O)[C@H](Cc1ccc(O)cc1)NC(=O)[C@H](CO)NC(=O)[C@H](Cc1c[nH]c2ccccc12)NC(=O)[C@H](Cc1cnc[nH]1)NC(=O)[C@@H]1CCC(=O)N1)C(=O)N[C@@H](CCCNC(=N)N)C(=O)N1CCC[C@H]1C(=O)NNC(N)=O` [Goserelin] were 0, 0.4 and 0.
`O=S(=O)(c1cccc2c(O)nccc12)N1CCCNCC1` [Hydroxyfasudil]: the drug sensitivity score in test [1] was 0.15 ± 0.21; in test [2], 0.4 ± 0.57; in test [3], 0.2 ± 0.28.
For `COc1cc2c(cc1-c1c(C)noc1C)ncc1[nH]c(=O)n([C@H](C)c3ccccn3)c12` [I-BET151], the drug sensitivity score in test [1] is 18.6 ± 0.78; in test [2], 18.4 ± 2.3; in test [3] it was 13.9.
Taken in the same sequence, the figures for `O=C(O)c1ccc(O)c2ncccc12` [IOX-1] were 2.5 ± 2, 2.4 ± 2.8 and 1.75 ± 0.21.
For the compound `O=C(O)CNC(=O)c1c(O)c2ccccc2n(Cc2ccccc2)c1=O` [IOX-2], the drug sensitivity score in test [1] stood at 0; in test [2] it was 0.3 ± 0.42; in test [3] it was 0.
For the compound `C=CC(=O)N1CCC[C@@H](n2nc(-c3ccc(Oc4ccccc4)cc3)c3c(N)ncnc32)C1` [Ibrutinib], the drug sensitivity score worked out at 1.5 ± 0.71 in test [1], 0.2 ± 0.28 in test [2] and 0.35 ± 0.49 in test [3].
For the compound `C#Cc1cccc(Nc2ncnc3cc4c(cc23)OCCOCCOCCO4)c1` [Icotinib], the drug sensitivity score in test [1], in test [2] and in test [3] was 0 throughout.
As to `COc1cc(C(=O)O)ccc1NC(=O)[C@@H]1N[C@@H](CC(C)(C)C)[C@](C#N)(c2ccc(Cl)cc2F)[C@H]1c1cccc(Cl)c1F` [Idasanutlin], the drug sensitivity score in test [1] amounted to 9.4 ± 13; in test [2], 8.5 ± 12; in test [3], 5.05 ± 0.21.
For the compound `CC[C@H](Nc1ncnc2[nH]cnc12)c1nc2cccc(F)c2c(=O)n1-c1ccccc1` [Idelalisib], the figures for the drug sensitivity score in test [1], in test [2] and in test [3] were 4.7 ± 2.5, 2.3 ± 2.5 and 0, respectively.
For `CCN1CCN(c2ccc(Nc3cc(N(C)C(=O)Nc4c(Cl)c(OC)cc(OC)c4Cl)ncn3)cc2)CC1` [Infigratinib], in that order: 0, 0 and 0.
Take `CC(C)NC[C@@H](C(=O)N1CCN(c2ncnc3c2[C@H](C)C[C@H]3O)CC1)c1ccc(Cl)cc1` [Ipatasertib]: the results for the drug sensitivity score in test [1], in test [2] and in test [3] were 4.75 ± 0.92, 3.4 ± 2.7 and 0.3 ± 0.42, respectively.
As to `CCC(C)n1ncn(-c2ccc(N3CCN(c4ccc(OCC5COC(Cn6cncn6)(c6ccc(Cl)cc6Cl)O5)cc4)CC3)cc2)c1=O` (configuration not stated) [Itraconazole], the drug sensitivity score in test [1] stood at 3.8 ± 5.4; in test [2] it was 4.6 ± 6.5; in test [3], 7.1 ± 1.3.
Consider `N#Cc1ccnc(N2C(=O)CC[C@H]2C(=O)N(c2cncc(F)c2)[C@H](C(=O)NC2CC(F)(F)C2)c2ccccc2Cl)c1` [Ivosidenib], for which the drug sensitivity score in test [1] is 0.3 ± 0.42; in test [2] it was 1.35 ± 1.9; in test [3], 0.
For `CC(C)C[C@H](NC(=O)CNC(=O)c1cc(Cl)ccc1Cl)B(O)O` [Ixazomib], the values for the drug sensitivity score in test [1], in test [2] and in test [3] were 13.5 ± 2.4, 8.95 ± 1.2 and 13.7 ± 1.4, respectively.
With `Nc1cc(COc2c(Cl)cc(C[C@H](N)C(=O)O)cc2Cl)c2oc(-c3ccccc3)nc2c1` [JPH203], the drug sensitivity score in test [1], in test [2] and in test [3] was 0 in each case.
As to `CC(C)NC(=O)COc1cccc(-c2nc(Nc3ccc4[nH]ncc4c3)c3ccccc3n2)c1` [KD025], the results for the drug sensitivity score in test [1], in test [2] and in test [3] were 2 ± 1.7, 2.3 ± 1.4 and 0, respectively.
Take `O=C(Nc1cnn2ccc(N3CCC[C@@H]3c3cc(F)ccc3F)nc12)N1CC[C@H](O)C1` [Larotrectinib]: the figures for the drug sensitivity score in test [1], in test [2] and in test [3] were 0, 0.05 ± 0.071 and 0.7 ± 0.71, respectively.
Take `Oc1ccc2c(c1)CC[C@H](c1ccccc1)[C@@H]2c1ccc(OCCN2CCCC2)cc1` [Lasofoxifene]: the drug sensitivity score came out at 0.15 ± 0.21 in test [1], 0.65 ± 0.92 in test [2] and 0 in test [3].
For `COc1cc2nccc(Oc3ccc(NC(=O)NC4CC4)c(Cl)c3)c2cc1C(N)=O` [Lenvatinib], in that order: 2.7 ± 1.1, 0.4 ± 0.57 and 0.
For `Cc1ccc(F)c(NC(=O)Nc2ccc(-c3cccc4[nH]nc(N)c34)cc2)c1` [Linifanib], in that order: 1.1 ± 1.6, 0.1 ± 0.14 and 0.1 ± 0.14.
Consider `CCNCCS(=O)(=O)NC[C@@]1(c2ccccc2)SC(NC(=O)C(C)(C)C)=NN1C(=O)C(C)(C)C` [Litronesib], for which the drug sensitivity score in test [1] stood at 24.2 ± 1.6; in test [2] it was 21.5 ± 2.4; in test [3], 10.9 ± 0.28.
As to `Nc1nc(OCc2cc(Br)cs2)c2[nH]cnc2n1` [Lomeguatrib], the drug sensitivity score in test [1] came out at 0; in test [2], 0.05 ± 0.071; in test [3], 0.
`NC(=O)N1CCC(CC(=O)N2CCC([C@H]3c4ncc(Br)cc4CCc4cc(Cl)cc(Br)c43)CC2)CC1` [Lonafarnib]: the drug sensitivity score in test [1] came out at 12.1 ± 17; in test [2] it was 13.8 ± 9.8; in test [3], 8.2 ± 0.14.
With `Cc1c(F)cc(C(=O)NC2CC2)cc1-c1ccc(C(=O)NCC(C)(C)C)cn1` [Losmapimod], the values for the drug sensitivity score in test [1], in test [2] and in test [3] were 2.3 ± 2.4, 1.8 ± 2.5 and 0.15 ± 0.21, respectively.
For the compound `CC[C@H](C)C(=O)O[C@H]1C[C@@H](C)C=C2C=C[C@H](C)[C@H](CC[C@@H]3C[C@@H](O)CC(=O)O3)[C@H]21` [Lovastatin], the drug sensitivity score in test [1], in test [2] and in test [3] was 0 throughout.
`CNC(=O)c1cccc2cc(Oc3ccnc4cc(OCC5(N)CC5)c(OC)cc34)ccc12` [Lucitanib]: the drug sensitivity score in test [1] was found to be 3.1 ± 1.1; in test [2], 2.95 ± 1.1; in test [3], 0.05 ± 0.071.
Take `CCNC(=O)c1noc(-c2cc(C(C)C)c(O)cc2O)c1-c1ccc(CN2CCOCC2)cc1` [Luminespib]: the values for the drug sensitivity score in test [1], in test [2] and in test [3] were 29.4 ± 1.7, 28.7 ± 3.2 and 18.4 ± 0.57, respectively.
As for `O=C(O)CC[C@H]1CC[C@@](c2cc(F)ccc2F)(S(=O)(=O)c2ccc(Cl)cc2)CC1` [MK-0752], the drug sensitivity score in test [1], in test [2] and in test [3] was 0 each time.
For the compound `O=C(c1cccc(Cl)c1F)N1CCN(Cc2cccc(Nc3nccs3)n2)CC1` [MK-8745], the drug sensitivity score in test [1] came out at 4.7 ± 0.14; in test [2], 3.5 ± 0.99; in test [3], 0.85 ± 0.071.
For `Cn1cc(-c2cnn3c(N)c(Br)c([C@@H]4CCCNC4)nc23)cn1` [MK-8776], in that order: 7.25 ± 0.64, 5.25 ± 3.3 and 0.
Consider `Cc1cnc(-c2ccccc2C(C)C)nc1NCc1ccc(-n2ccnn2)cc1` [ML323], for which the drug sensitivity score in test [1] came out at 4.4 ± 1.6; in test [2], 3.35 ± 2.9; in test [3] it was 1.25 ± 0.071.
As for `O=C(CCNC(=O)c1ccc(OC(F)(F)F)cc1)N[C@@H]1CCCc2ccccc21` [ML390], the drug sensitivity score in test [1] was 18.55 ± 0.071; in test [2], 19.6 ± 0.92; in test [3] it was 12.4 ± 0.49.
Take `O=C(Nc1cccc(NC(=O)c2cccc(O)c2O)c1)c1cccc(O)c1O` [MST-312]: the figures for the drug sensitivity score in test [1], in test [2] and in test [3] were 16.6 ± 0.21, 17.1 ± 2 and 17.2 ± 0.42, respectively.
In the case of `CNC(=O)[C@@H](NC(=O)[C@H](CC(C)C)[C@H](O)C(=O)NO)C(C)(C)C` [Marimastat], the drug sensitivity score in test [1] was found to be 0; in test [2], 0.35 ± 0.49; in test [3], 0.
Regarding `CC(=O)O[C@]1(C(C)=O)CC[C@H]2[C@@H]3C=C(C)C4=CC(=O)CC[C@]4(C)[C@H]3CC[C@@]21C` [Megestrol acetate], the drug sensitivity score is 0.1 ± 0.14 in test [1], 0.15 ± 0.21 in test [2] and 0 in test [3].
For `CCN(CC)CCCC(C)Nc1c2ccc(Cl)cc2nc2ccc(OC)cc12` (configuration not stated) [Mepacrine], in that order: 18.6 ± 2.2, 19.7 ± 1.4 and 5.4.
Consider `Cc1ccc(C(=O)Nc2ccc(Oc3cc4cnn(C)c4cc3-c3cn[nH]c3)c(F)c2)c(=O)n1-c1ccc(F)cc1` [Merestinib], for which the figures for the drug sensitivity score in test [1], in test [2] and in test [3] were 0, 0 and 0.05 ± 0.071, respectively.
Turning to `CN(C)C(=N)NC(=N)N` [Metformin], the drug sensitivity score in test [1], in test [2] and in test [3] was 0 throughout.
